Legend:
Type in all cases: in vivo
[1] = test system: PC-3 human hormone-independent prostate cancer; experiment: PC-3 human prostate cancer xenografts in nude mice, Experiment 4; conditions: for Tumor growth after 28 days (%) / Tumor growth after 46 days (%) / Inhibition (%): 2 μg/day s.c.; for Inhibitory effect on PC-3 tumors compared with reference peptide JMR-132: 2 μg/day vs JMR-132 10 μg/day, after 46 days of treatment
Experimental: Male nude mice were implanted s.c. with 3 mm^3 pieces of PC-3 human hormone-independent prostate cancer tissue on both flanks. When tumors reached a volume of approximately 50 mm^3, the mice were divided into 12 experimental groups with 8 to 10 animals in each group and received single daily injections for 28 days as follows: 1. Control (vehicle solution); 2. JMR-132 (10 μg/day s.c.); 3. Peptide 11113 (2 μg/day s.c.); 4. Peptide 11119 (2 μg/day s.c.); 5. Peptide 11209 (2 μg/day s.c.); 6. Peptide 11313 (2 μg/day s.c.); 7. Peptide 11408 (2 μg/day s.c.); 8. Peptide 11435 (2 μg/day s.c.); 9. Peptide 11457 (2 μg/day s.c.); 10. Peptide 11459 (2 μg/day s.c.); 11. Peptide 11469 (2 μg/day s.c.); 12. Peptide 11491 (2 μg/day s.c.).
(§1) Tumor volumes were measured once a week. The experiment was ended on day 28 by sacrificing the mice under Isoflurane anesthesia. Resulting tumors were cleaned, weighed, and snap-frozen until further analyses. Statistical analyses of the measurement results were done by two-tailed t-test, p<0.05 being considered significant.
All experimental details of Experiment 4 are the same as for Experiment 3, with the following difference. When tumors reached a volume of approximately 50 mm^3, the mice were divided into 11 experimental groups with 8 to 10 animals in each group and received single daily injections for 46 days as follows: 1. Control (vehicle solution); 2. JMR-132 (10 μg/day s.c.); 3. Peptide 11123 (2 μg/day s.c.); 4. Peptide 11125 (2 μg/day s.c.); 5. Peptide 11213 (2 μg/day s.c.); 6. Peptide 11433 (2 μg/day s.c.); 7. Peptide 11473 (2 μg/day s.c.); 8. Peptide 11485 (2 μg/day s.c.); 9. Peptide 11497 (2 μg/day s.c.); 10. Peptide 11499 (2 μg/day s.c.); 11. Peptide 11521 (2 μg/day s.c.). Tumor volumes were measured once a week. The experiment was ended on day 46 by sacrificing the mice under Isoflurane anesthesia. Resulting tumors were cleaned, weighed, and snap-frozen until further analyses. Statistical analyses of the measurement results were done by two-tailed t-test, p<0.05 being considered significant.

[2] = test system: HT human diffuse mixed B cell lymphoma cell line; experiment: HT human diffuse mixed B cell lymphoma xenografts in nude mice; conditions: 5 μg/day s.c.
Experimental: The aim of this study was to find out the tumor inhibitor effect of the latest GHRH antagonists (Peptide 11602, Peptide 11604, Peptide 11606, and Peptide 11610) at the dose of 5 μg/day on HT human diffuse mixed B cell lymphoma cell line. Female nude mice were xenografted subcutaneously with approximately 3 mm^3 pieces of HT malignant tumor tissue. When tumors reached the mean volume of approximately 120 mm^3, the animals were randomly assigned into different groups. Tumor volumes and body weight were measured once a week. At the end of the experiment mice were anesthetized and sacrificed. Tumors were carefully excised, weighed and were stored at −80° C. until further investigation. Organs and tumor samples were preserved in 10% formaldehyde.

[3] = test system: PC-3 human hormone-independent prostate cancer; experiment: PC3 androgen-independent prostate cancer xenografts in nude mice (Example XIV)
Experimental: Male nude mice were implanted s.c. with 3 mm^3 pieces of PC-3 human hormone-independent prostate cancer tissue on both flanks. When tumors reached a volume of approximately 50 mm^3, the mice were divided into 8 experimental groups with 8 to 10 animals in each group and received single daily injections for 28 days as follows: 1. Control (vehicle solution); 2. P-11513 2 μg/day; 3. P-11602 2 μg/day; 4. P-11602 1 μg/day; 5. P-11604 2 μg/day; 6. P-11606 2 μg/day; 7. P-11610 2 μg/day; 8. P-11610 1 μg/day.
as §1

[4] = test system: Human ovarian cancer SKOV3 cells; experiment: SKOV3 ovarian cancer xenografts in nude mice; conditions: 5 μg/day s.c.
Source text: Human ovarian cancer SKOV3 cells growing exponentially were implanted info five female nude mice by subcutaneous (s.c.) injection of 10^7 cells in both flanks. Tumors That resulted after approximately 4 weeks in donor animals were then aseptically dissected and mechanically minced. Three mm^3 pieces of tumor tissue were transplanted subcutaneously into experimental animals with a trocar needle. When tumors reached an appropriate size (approximately 50 mm^3), mice were randomly divided into […]. The first was the control group, the second group was treated with daily s.c. injections of 5 μg P-11313, the third group was treated with daily s.c. injections of 5 μg P-11604, the fourth group was treated with daily s.c. injections of 5 μg P-11610. Tumor volume (length×width×height×0.5236) was measured every week and mean tumor volumes of each group were compared by Student's t-test. The study lasted 49 days. One week after end of treatment, mice were killed under anesthesia, tumors were snap frozen and stored at −70° C.

[5] = test system: H460 human non-small cell lung cancer cell line; experiment: H460 human non-small cell lung cancer xenografts in nude mice (Example XV); conditions: 5 μg/day s.c.
Source text: The aim of this study was to find out the tumor inhibitor effect of the latest GHRH antagonists (Peptide 11423, Peptide 11602, Peptide 11604, Peptide 11606) on H460 human non-small cell lung cancer cell line. Female nude mice were xenografted subcutaneously with approximately 3 mm^3 pieces of H460 human non-small cell lung cancer malignant tumor tissue. When tumors reached the mean volume of approximately 90 mm^3, the animals was randomly assigned into different groups. Tumor volumes and body weight were measured once a week. At the end of the experiment mice were anesthetized and sacrificed. Tumors were carefully excised, weighed and were stored at −80° C. until further investigation. Organs and tumor samples were preserved in 10% formaldehyde.

Substance: [Oct^0-Tyr^1, D-Arg^2, Cpa^6, Ala^8, His^9, Tyr(Et)^10, His^11, Orn^12, Abu^15, His^20, Orn^21, Nle^27, D-Arg^28, Har^29-Ada^30]hGH-RH(1-29)NH2 [Peptide 11213]
- Tumor growth after 28 days (%) [1]: 651%
- Tumor growth after 46 days (%) [1]: 1144%
- Inhibitory effect on PC-3 tumors compared with reference peptide JMR-132 [1]: had a more potent inhibitory effect than reference peptide JMR-132
- Inhibition (%) ([1]; after 28 days): 52.41%
- Inhibition (%) ([1]; after 46 days): 65.65%

Substance: PhAc^0-Tyr^1, D-Arg^2, Cpa^6, Ala^8, Har^9, (Phe(F)5)^10, His^11, Orn^12, Abu^15, His^20, Orn^21, Nle^27, D-Arg^28, Har^29-Ada^30]hGH-RH(1-29)NH2 [Peptide 11610]
- TUMOR GROWTH (%) ([2]; day 1 (baseline)): 100%
- Tumor inhibition (%) ([2]; day 1 (baseline)): 0%
- Tumor volume (mm^3) ([2]; day 1 (baseline)): 90.42 mm^3
- TUMOR GROWTH (%) ([2]; day 7): 183.36%
- Tumor inhibition (%) ([2]; day 7): 40.01%
- Tumor volume (mm^3) ([2]; day 7): 145.53 mm^3
- TUMOR GROWTH (%) ([2]; day 14): 307.98%
- Tumor inhibition (%) ([2]; day 14): 36.21%
- Tumor volume (mm^3) ([2]; day 14): 194.57 mm^3
- TUMOR GROWTH (%) ([2]; day 21): 361.18%
- Tumor inhibition (%) ([2]; day 21): 53.78%
- Tumor volume (mm^3) ([2]; day 21): 250.24 mm^3
- TUMOR GROWTH (%) ([2]; day 28): 519.79%
- Tumor inhibition (%) ([2]; day 28): 42.02%
- Tumor volume (mm^3) ([2]; day 28): 428.99 mm^3
- TUMOR GROWTH (%) ([3]; 1 μg/day, day 0 (baseline)): 100%
- TUMOR GROWTH (%) ([3]; 1 μg/day, day 7): 195.49%
- Tumor inhibition (%) ([3]; 1 μg/day, day 7): 40.99%
- TUMOR GROWTH (%) ([3]; 1 μg/day, day 14): 302.30%
- Tumor inhibition (%) ([3]; 1 μg/day, day 14): 48.84%
- TUMOR GROWTH (%) ([3]; 1 μg/day, day 21): 549.94%
- Tumor inhibition (%) ([3]; 1 μg/day, day 21): 53.79%
- TUMOR GROWTH (%) ([3]; 1 μg/day, day 28): 740.17%
- Tumor inhibition (%) ([3]; 1 μg/day, day 28): 60.15%
- TUMOR GROWTH (%) ([3]; 2 μg/day, day 0 (baseline)): 100%
- TUMOR GROWTH (%) ([3]; 2 μg/day, day 7): 132.24%
- Tumor inhibition (%) ([3]; 2 μg/day, day 7): 60.08%
- TUMOR GROWTH (%) ([3]; 2 μg/day, day 14): 289.25%
- Tumor inhibition (%) ([3]; 2 μg/day, day 14): 51.05%
- TUMOR GROWTH (%) ([3]; 2 μg/day, day 21): 466.31%
- Tumor inhibition (%) ([3]; 2 μg/day, day 21): 60.82%
- TUMOR GROWTH (%) ([3]; 2 μg/day, day 28): 631.89%
- Tumor inhibition (%) ([3]; 2 μg/day, day 28): 65.98%
- TU growth (%) ([4]; day 0 (baseline)): 100%
- TU growth (%) ([4]; day 7): 137.44%
- TU inhibition (%) ([4]; day 7): 35.89%
- TU growth (%) ([4]; day 14): 150.1%
- TU inhibition (%) ([4]; day 14): 46.44%
- TU growth (%) ([4]; day 21): 239.14%
- TU inhibition (%) ([4]; day 21): 56.00%
- TU growth (%) ([4]; day 28): 204.07%
- TU inhibition (%) ([4]; day 28): 75.76%
- TU growth (%) ([4]; day 35): 242.05%
- TU inhibition (%) ([4]; day 35): 72.89%
- TU growth (%) ([4]; day 42): 273.83%
- TU inhibition (%) ([4]; day 42): 77.85%
- TU growth (%) ([4]; day 49): 383.93%
- TU inhibition (%) ([4]; day 49): 69.82%

Substance: [(Ac-Amc)^0-Tyr^1, D-Arg^2, Cpa^6, Ala^8, Har^9, Tyr(Me)^10, His^11, Orn^12, Abu^15, His^20, Orn^21, Nle^27, D-Arg^28, Har^29-Ada^30]hGH-RH(1-29)NH2 [Peptide 11497]
- Tumor growth after 28 days (%) [1]: 872%
- Tumor growth after 46 days (%) [1]: 1658%
- Inhibitory effect on PC-3 tumors compared with reference peptide JMR-132 [1]: had a more potent inhibitory effect than reference peptide JMR-132
- Inhibition (%) ([1]; after 28 days): 36.25%
- Inhibition (%) ([1]; after 46 days): 50.22%

Substance: [PhAc^0-Tyr^1, D-Arg^2, (Phe(F)5)^6, Ala^8, Har^9, Tyr(Me)^10, His^11, Orn^12, Abu^15, His^20, Orn^21, Nle^27, D-Arg^28, Har^29-Ada^30]hGH-RH(1-29)NH2 [Peptide 11499]
- Tumor growth after 28 days (%) [1]: 782%
- Tumor growth after 46 days (%) [1]: 2178%
- Inhibition (%) ([1]; after 28 days): 42.86%
- Inhibition (%) ([1]; after 46 days): 34.59%

Substance: [PhAc^0-Tyr^1, D-Arg^2, Cpa^6, Dip^8, Har^9, Tyr(Me)^10, His^11, Orn^12, Abu^15, His^20, Orn^21, Nle^27, D-Arg^28, Har^29-AE2A^30]hGH-RH(1-29)NH2 [Peptide 11423]
- TUMOR GROWTH (%) ([5]; day 1 (baseline)): 100.00%
- TUMOR GROWTH (%) ([5]; day 7): 412.37%
- Tumor inhibition (%) ([5]; day 7): 22.17%
- TUMOR GROWTH (%) ([5]; day 14): 761.10%
- Tumor inhibition (%) ([5]; day 14): 44.95%
- TUMOR GROWTH (%) ([5]; day 21): 1130.90%
- Tumor inhibition (%) ([5]; day 21): 54.20%
- TUMOR GROWTH (%) ([5]; day 28): 2687.38%
- Tumor inhibition (%) ([5]; day 28): 34.45%

Substance: [Nac^0-Tyr^1, D-Arg^2, Cpa^6, Ala^8, Har^9, Tyr(Me)^10, His^11, Orn^12, Abu^15, His^20, Orn^21, Nle^27, D-Arg^28, Har^29-AE2A^30] hGH-RH(1-29)NH2 [Peptide 11433]
- Tumor growth after 28 days (%) [1]: 956%
- Tumor growth after 46 days (%) [1]: 1890%
- Inhibition (%) ([1]; after 28 days): 30.15%
- Inhibition (%) ([1]; after 46 days): 43.23%

Substance: [Dca^0-Tyr^1, D-Arg^2, Cpa^6, Ala^8, Har^9, Tyr(Me)^10, His^11, Orn^12, Abu^15, Har^20, Orn^21, Nle^27, D-Arg^28, Har^29]hGH-RH(1-29)NH2 [Peptide 11513]
- TUMOR GROWTH (%) ([3]; 2 μg/day, day 0 (baseline)): 100%
- TUMOR GROWTH (%) ([3]; 2 μg/day, day 7): 212.49%
- Tumor inhibition (%) ([3]; 2 μg/day, day 7): 35.86%
- TUMOR GROWTH (%) ([3]; 2 μg/day, day 14): 420.81%
- Tumor inhibition (%) ([3]; 2 μg/day, day 14): 28.79%
- TUMOR GROWTH (%) ([3]; 2 μg/day, day 21): 823.51%
- Tumor inhibition (%) ([3]; 2 μg/day, day 21): 30.80%
- TUMOR GROWTH (%) ([3]; 2 μg/day, day 28): 1420.09%
- Tumor inhibition (%) ([3]; 2 μg/day, day 28): 23.54%

Substance: [(Dca-Amc)^0-Tyr^1, D-Arg^2, Cpa^6, Ala^8, Har^9, Tyr(Me)^10, His^11, Orn^12, Orn^15, His^20, Orn^21, Nle^27, D-Arg^28, Har^29-Ada^30]hGH-RH(1-29)NH2 [Peptide 11521]
- Tumor growth after 28 days (%) [1]: 877%
- Tumor growth after 46 days (%) [1]: 2427%
- Inhibition (%) ([1]; after 28 days): 35.86%
- Inhibition (%) ([1]; after 46 days): 27.11%
